# Test results reported in PubChem BioAssay AID1645862 (Buhrlage Lab, Dana-Farber Cancer Institute and Novartis …, 2021).
# Active and inactive are the calls of the source. How the calls were made is not given here.
# Molecular target: Ubiquitin carboxyl-terminal hydrolase 8 (Homo sapiens) (UniProt P40818)
# Test: Ubiquitin-specific protease 8 inhibitors, concentration-effect, biochemical, validation of initial actives (AID 1645862);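 further: potency reflects inhibition of USP8 cleavage of a ubiquitin rhodamine substrate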
# Details: recombinant USP8 deubiquitinase activity assay
# Sequence of Ubiquitin carboxyl-terminal hydrolase 8 (Homo sapiens) (P40818 whole entry, looked up): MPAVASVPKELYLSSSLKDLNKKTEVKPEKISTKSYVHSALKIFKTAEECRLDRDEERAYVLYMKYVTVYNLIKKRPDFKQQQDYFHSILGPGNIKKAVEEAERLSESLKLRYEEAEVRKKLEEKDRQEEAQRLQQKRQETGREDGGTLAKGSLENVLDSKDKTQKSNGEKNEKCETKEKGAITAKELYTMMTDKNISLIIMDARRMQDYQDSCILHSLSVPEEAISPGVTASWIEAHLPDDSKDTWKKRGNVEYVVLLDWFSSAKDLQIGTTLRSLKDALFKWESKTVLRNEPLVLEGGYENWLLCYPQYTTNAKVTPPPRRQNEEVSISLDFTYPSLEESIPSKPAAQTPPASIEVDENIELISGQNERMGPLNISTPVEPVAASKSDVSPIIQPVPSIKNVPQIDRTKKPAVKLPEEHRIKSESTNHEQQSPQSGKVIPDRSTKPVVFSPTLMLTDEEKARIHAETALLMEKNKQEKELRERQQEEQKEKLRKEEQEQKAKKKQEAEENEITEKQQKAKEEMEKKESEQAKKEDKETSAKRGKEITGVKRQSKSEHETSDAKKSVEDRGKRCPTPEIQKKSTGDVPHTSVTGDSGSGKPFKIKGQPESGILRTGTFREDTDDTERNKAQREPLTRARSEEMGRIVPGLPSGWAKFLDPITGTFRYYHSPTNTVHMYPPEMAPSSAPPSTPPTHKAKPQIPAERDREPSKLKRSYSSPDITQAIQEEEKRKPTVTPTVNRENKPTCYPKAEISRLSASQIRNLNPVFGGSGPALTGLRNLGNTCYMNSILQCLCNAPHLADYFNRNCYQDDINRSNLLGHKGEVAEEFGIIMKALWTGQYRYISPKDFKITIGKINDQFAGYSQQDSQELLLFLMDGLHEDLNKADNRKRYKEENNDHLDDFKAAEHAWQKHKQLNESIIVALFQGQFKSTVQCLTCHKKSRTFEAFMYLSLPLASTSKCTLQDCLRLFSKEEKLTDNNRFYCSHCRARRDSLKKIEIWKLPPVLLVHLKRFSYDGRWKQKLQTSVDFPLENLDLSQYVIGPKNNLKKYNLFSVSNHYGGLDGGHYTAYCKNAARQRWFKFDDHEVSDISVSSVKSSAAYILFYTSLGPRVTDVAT
row,SMILES,IC50
1,O=C(O)c1ccccc1C(=O)Nc1ccc(SC(C(=O)Nc2ccccc2Cl)c2ccccc2)cc1 (stereo not drawn),> 40 µM (inactive)
2,COc1cc(=O)c(C(=O)Nc2ccc(C#N)cc2)nn1-c1cccc(F)c1,> 40 µM (inactive)
3,COc1ccc(S(=O)(=O)NCc2ccc3c(c2)cc(C)n3C)cc1,> 40 µM (inactive)
4,Cc1ccc(NC(=O)Cc2nnc3cc(-c4nc(C)no4)ccn23)cc1,21.3 µM
5,COc1ccc(NC(=O)COc2cc(C)nc(-c3ccc(C)cc3)n2)c(OC)c1,> 40 µM (inactive)
6,COc1ccc(/C=C/C(=O)Nc2ccc(Cl)c(-c3nc4ncccc4o3)c2)cc1,> 40 µM (inactive)
7,CCCC[C@@H](C)/C=C(C)/C=C(\C)C(=O)NC1=C[C@](O)(/C=C/C=C/C=C/C(=O)NC2=C(O)CCC2=O)[C@@H]2O[C@@H]2C1=O,> 40 µM (inactive)
8,O=C(Cc1ccc(-n2c(=O)c3ccccc3n(CC(=O)Nc3ccc(Cl)cc3Cl)c2=O)cc1)NCc1ccco1,> 40 µM (inactive)
9,CCCCCCCCC/C=C/C(=O)CCc1c(O)c(C=O)c2c(c1O)C(=O)OC2O (stereo not drawn),0.514 µM
10,CCOc1ccc(-c2nnc(NC(=O)C3CCN(S(=O)(=O)c4ccc5c(c4)CCC5)CC3)o2)cc1,> 40 µM (inactive)
11,COc1ccc2[nH]c(=O)c(CN(C)C(=O)c3ccc([N+](=O)[O-])cc3)cc2c1,> 40 µM (inactive)
12,O=C(CSc1ccc2nnc(-c3ccc(Cl)cc3)n2n1)N1CCCCC1,> 40 µM (inactive)
13,COc1ccccc1C(=O)Nc1ccc(-c2nc3ccccc3o2)c(O)c1,> 40 µM (inactive)
14,CCCCCCCCCc1cc(OC(=O)c2c(CCCCCCCCC)cc(O)cc2O[C@@H]2O[C@H](CO)[C@@H](O)[C@H](O)[C@H]2O)cc(O)c1C(=O)O,6.23 µM
15,CCCCCCCCCCCCCCCc1cc(O)cc(O)c1C(=O)O,30.9 µM
16,Cc1nc(SCC(=O)NC(C)c2ccccc2)c2oc3ccccc3c2n1 (stereo not drawn),> 40 µM (inactive)
17,O=C(CCSc1nnnn1-c1ccccc1)Nc1cc(C(F)(F)F)ccc1Cl,> 40 µM (inactive)
18,CNC(=O)c1cc2nc(N(C)C)n(-c3ccc(F)cc3)c2s1,> 40 µM (inactive)
19,O=C(Nc1cccc([N+](=O)[O-])c1)Nc1ccc2snnc2c1,14.8 µM
20,CC(C)CCCCCCCCCCC(=O)N(C)[C@H](CO)C(=O)N[C@H](C)C(=O)NCC(=O)N(C)C1C(=O)N[C@@H](C)C(=O)NC(C(=O)O)Cc2ccc(O)c(c2)-c2cc1ccc2O (stereo partly drawn),> 40 µM (inactive)
21,Cc1nc2c(c(C)c1CCC(=O)Nc1ccccc1F)c(=O)n(C)c(=O)n2C,> 40 µM (inactive)

row,SMILES,IC50
1,CC(C)NC(=O)Cn1ccn2nc(-c3ccc(Cl)cc3)cc2c1=O,> 40 µM (inactive)
2,COc1ccc(-n2c(=O)c3ccc(C(=O)NCCc4ccccc4)cc3n(CC(=O)NCc3ccco3)c2=O)cc1,> 40 µM (inactive)
3,Cc1ccc2[nH]c(=O)c(-c3nc4ccccn4c3NCc3ccccc3)cc2c1,> 40 µM (inactive)
4,Cc1ccc(S(=O)(=O)NCc2ccc(C(=O)NCCc3ccc(S(N)(=O)=O)cc3)cc2)cc1,> 40 µM (inactive)
5,O=C(CN1C(=O)c2ccccc2C1=O)Nc1nc(-c2ccc(Br)cc2)cs1,> 40 µM (inactive)
6,Cn1c(=O)n([C@@H](Cc2ccccc2)C(=O)N[C@@H](C(=O)O)c2ccc(O)cc2)c(=O)c2ccccc21,> 40 µM (inactive)
7,COc1ccc(CSc2nc3ccncc3n2CC(=O)Nc2ccc(C)cc2C)cc1,> 40 µM (inactive)
8,N#Cc1ccc(NC(=O)Nc2cccn(Cc3ccccc3Br)c2=O)cc1,> 40 µM (inactive)
9,CN1CCC(N2CCN(C(=O)C3CCCN(c4cnc5nccnc5c4)C3)CC2)CC1 (stereo not drawn),> 40 µM (inactive)
10,Cc1ccc(C(=O)NC(C)c2ccccc2)cc1NC(=O)c1nsc2ccccc12 (stereo not drawn),> 40 µM (inactive)
11,Cc1ccc(NC(=O)Cn2c(=O)n(CC(=O)NCCc3ccccc3)c(=O)c3sccc32)cc1C,> 40 µM (inactive)
12,O=C(/C=C/c1cccc([N+](=O)[O-])c1)N1CCc2ccccc21,> 40 µM (inactive)
13,O=C(CCc1nnc2n(Cc3ccccc3)c(=O)c3ccccc3n12)NCc1ccc2c(c1)OCO2,> 40 µM (inactive)
14,O=C(Cn1c(=O)c2ccccc2n(CC(=O)Nc2cc(Cl)cc(Cl)c2)c1=O)NCc1ccco1,> 40 µM (inactive)
15,O=C(/C=C/c1ccc(F)cc1)N1CCc2ccccc2C1,26 µM
16,CC(=O)N1CCc2cc(S(=O)(=O)NC(Cc3ccccc3)C(=O)Nc3cccc(Cl)c3C)ccc21 (stereo not drawn),> 40 µM (inactive)
17,COc1ccc(NS(=O)(=O)c2cc(NC(=O)CC(=O)c3ccc([N+](=O)[O-])cc3)ccc2C)cc1,> 40 µM (inactive)
18,O=C(CN1C(=O)c2cccc3cccc1c23)NCCSCc1ccc(Cl)c(Cl)c1,> 40 µM (inactive)
19,CC(OC(=O)c1cc(S(=O)(=O)Nc2ccccc2F)ccc1Cl)C(=O)Nc1ccc([N+](=O)[O-])cc1C(F)(F)F (stereo not drawn),> 40 µM (inactive)
20,COc1cc(NC(=O)Cn2nc(-c3ccc(F)cc3)ccc2=O)ccc1-n1cnnn1,> 40 µM (inactive)
21,O=c1[nH]c(C2CCN(S(=O)(=O)c3ccc(S(=O)(=O)NC4CCCC4)cc3)CC2)nc2c1nnn2Cc1cccc(Cl)c1,> 40 µM (inactive)

row,SMILES,IC50
1,O=C(Cn1cc(C(=O)c2ccccc2)c(=O)c2cc(F)ccc21)Nc1ccc2c(c1)OCO2,> 40 µM (inactive)
2,CCOc1ccc(CC(=O)Nc2ccc(-c3cn4cccnc4n3)cc2)cc1,> 40 µM (inactive)
3,CSc1ccc(CNC(=O)Cn2c(=O)[nH]c3c(-c4ccccc4)c[nH]c3c2=O)cc1,> 40 µM (inactive)
4,Cn1cc2cccc(NC(=O)c3ccc(F)cc3)c2n1,> 40 µM (inactive)
5,Cc1c(Cl)cccc1NC(=O)Cn1cc(C(=O)C2CC2)c2ccccc21,> 40 µM (inactive)
6,O=C(c1cc(S(=O)(=O)Nc2ccc(Cl)cc2)ccc1Cl)N1CCCc2ccccc21,> 40 µM (inactive)
7,COc1cc(OC)c(NC(=O)c2cc(-c3ccccn3)n[nH]2)cc1Cl,> 40 µM (inactive)
8,Cn1cc(NC(=O)Nc2cccc3ccccc23)c2ccccc21,> 40 µM (inactive)
9,O=C(Nc1ccc2snnc2c1)Nc1ccc(F)cc1F,> 40 µM (inactive)
10,CCc1ccc(-n2cc(OC(C)=O)c3c2nc(C)n2c4ccccc4nc32)cc1,> 40 µM (inactive)
11,O=C(CN(CC(=O)NCc1ccccc1Cl)c1nc2ccccc2s1)NCc1ccccc1Cl,> 40 µM (inactive)
12,O=C(Cn1c(=O)c2cccn2c2ccccc21)NCc1ccc(F)cc1,> 40 µM (inactive)
13,Cc1ccc(C(=O)c2cn(CC(=O)Nc3ccccc3)c3ccccc3c2=O)cc1,> 40 µM (inactive)
14,Cc1nnc(-c2cc(S(=O)(=O)N3CCN(c4ccc(F)cc4)CC3)c[nH]2)o1,> 40 µM (inactive)
15,N#Cc1ccccc1NC(=O)c1cc2c(s1)-c1ccccc1S(=O)(=O)C2,> 40 µM (inactive)
16,COc1ccc(NC(=O)[C@H](C)NC(=O)c2cc3c(OC)cccc3[nH]2)cc1Cl,> 40 µM (inactive)
17,CSc1cccc(NC(=O)C2C3C=CC4(O3)C2C(=O)N(CCc2ccccc2)C4C(=O)NC2CCCCC2)c1 (stereo not drawn),> 40 µM (inactive)
18,CSc1cccc(NC(=O)COc2cccc3ccccc23)c1,> 40 µM (inactive)
19,O=C(Cn1c(=O)n(-c2ccccc2)c(=O)c2ccc(C(=O)NCc3ccc4c(c3)OCO4)cc21)NCCC1=CCCCC1,> 40 µM (inactive)
20,CCCCNC(=O)C1Sc2nnc(-c3ccccc3)n2NC1c1ccccc1 (stereo not drawn),> 40 µM (inactive)
21,O=C1C=C(O)c2c(O)cccc2C1=O,19 µM
